The text below walks through data of ChEMBL document CHEMBL4049411, “Rational Design, Synthesis, and Biological Evaluation of Heterocyclic Quinolones Targeting the Respiratory Chain of Mycobacterium tuberculosis” (J Med Chem, 2017).

In brackets after ≈: the same amount, converted by molar mass. A value given as a limit tells only on which side of the number the result lay.

Data set [1] can be described thus: (§1) Inhibition of replicating Mycobacterium tuberculosis H37Rv NDH assessed as cell growth inhibition after 7 days by MABA method. The settings on record: 168 h.
A short description of data set [2]: Protein binding in human plasma at 1 uM after 18 hrs by equilibrium dialysis. The format is ADME, cell-free. As to conditions: read-out: PPB (converted).
Data set [3] can be described thus: Aqueous solubility of compound. It counts as physicochemical. The settings on record: buffer.
Data set [4] can be described thus: Lipophilicity, logD of compound at pH 7.4. As to conditions: buffer.
Data set [5] can be described thus: Intrinsic clearance in human microsomes. It counts as ADME, Microsome. The settings on record: read-out: CLH.
The nature of data set [6]: Intrinsic clearance in rat hepatocytes assessed per million cells. It counts as ADME, cell-based, Hepatocyte. The settings on record: read-out: CLH.
In data set [7] the test system is Mycobacterium tuberculosis H37Rv. Described as §1.
For a further data set, the system named is HepG2. As to the kind of experiment: Cytotoxicity against human HepG2 cells after 24 hrs in presence of glucose by MTT assay. The format is cell-based. The settings on record: hepg2, 24 h.
A short description of data set [8]: Metabolic stability in human liver microsomes assessed as half life for metabolic turnover at 0.1 to 10 uM preincubated for 60 mins in presence of NADPH measured up to 60 mins by mass spectroscopic analysis. It counts as ADME, microsome.
A short description of data set [9]: Metabolic stability in mouse liver microsomes assessed as half life for metabolic turnover at 0.1 to 10 uM preincubated for 60 mins in presence of NADPH measured up to 60 mins by mass spectroscopic analysis. It counts as ADME, microsome.
A short description of data set [10]: Metabolic stability in rat liver microsomes assessed as half life for metabolic turnover at 0.1 to 10 uM preincubated for 60 mins in presence of NADPH measured up to 60 mins by mass spectroscopic analysis. The format is ADME, microsome.

Turning to `COc1cc2[nH]c(-c3ccc(N4CCCCC4)cc3)c(C)c(=O)c2cc1F`, the IC50 in data set [1] is 520 nM. Moreover, the fraction unbound at 18 h, 1 µM in data set [2] was 0.012. Further, in data set [3], the solubility amounted to 2 µM (≈ 0.733 µg/mL). The same compound had a logD in data set [4] of 3.9. The microsomal CLint in data set [5] was over 300 µL/min/mg. Besides, the hepatocyte CLint in data set [6] was determined as 231 µL/min/1e6 cells.
Consider `COc1ccc2c(=O)c(Cl)c(-c3ccc(N4CCCCC4)cc3)[nH]c2c1`, for which the IC50 in [1] was 2820 nM. Moreover, the fraction unbound at 18 h, 1 µM in [2] is 0.012. For the same compound, in data set [3], the concentration in solution (solubility) was 0.5 µM (≈ 0.184 µg/mL). The same compound came in with a log distribution coefficient (logD) in data set [4] of 3.6. In addition, the microsomal CLint in [5] was over 300 µL/min/mg. Further, the hepatocyte CLint in data set [6] is 48.9 µL/min/1e6 cells.
Regarding `Cc1c(-c2ccc(N3CCC[C@H]3CO)cc2)[nH]c2cc(F)cc(F)c2c1=O`, the IC50 in data set [1] is 1590 nM. The fraction unbound at 18 h, 1 µM in [2] was 0.045. Also, the solubility in data set [3] is 4 µM (≈ 1.48 µg/mL). The compound also registered a logD in [4] of over 3.4. The microsomal CLint in data set [5] was over 300 µL/min/mg. Also, in data set [6], the hepatocyte CLint was determined as 36.5 µL/min/1e6 cells.
For the compound `Cc1c(-c2ccc(N3CC[C@@H](F)C3)cc2)[nH]c2cc(F)cc(F)c2c1=O`, the half-maximal inhibitory concentration (IC50) in data set [1] was in the range of 230 to 231 nM. In addition, in data set [7], the 90% effect concentration (IC90) stood at 500 nM. In addition, in the data set on HepG2, the Activity came out at 150.6 µM. Besides, the figures for the half-life at up to 10 µM in data set [8], in data set [9] and in data set [10] were 10.2 min, 4.4 min and 10.6 min, respectively. Further, the fraction unbound at 18 h, 1 µM in [2] is 0.009. This compound had a solubility in data set [3] of 0.9 µM (≈ 0.323 µg/mL). Besides, in data set [4], the logD was 3.8. For the same compound, the microsomal CLint in data set [5] came out at 175 µL/min/mg. Also, the hepatocyte CLint in [6] was 118 µL/min/1e6 cells.
On to `Cc1c(-c2ccc(N3CCCCCC3)cc2)[nH]c2cc(F)cc(F)c2c1=O`, for which the IC50 in data set [1] turned out to be 490 nM. The fraction unbound at 18 h, 1 µM in data set [2] is 0.006. The solubility in [3] is under 0.1 µM. The compound further yielded a logD in [4] of 4.8. Also, the microsomal CLint in data set [5] is over 300 µL/min/mg. In addition, in [6], the hepatocyte CLint is 243 µL/min/1e6 cells.
Regarding `Cc1c(-c2ccc(N3CCC[C@@H]3CO)cc2)[nH]c2cc(F)cc(F)c2c1=O`, the IC50 in [1] came out at 320 nM. The fraction unbound at 18 h, 1 µM in data set [2] is 0.045. For the same compound, the solubility in [3] is 4 µM (≈ 1.48 µg/mL). Also, the logD in data set [4] is over 3.4. Also, in data set [5], the microsomal CLint was over 300 µL/min/mg. In addition, the hepatocyte CLint in [6] came out at 36.5 µL/min/1e6 cells.
Turning to `Cc1c(-c2ccc(N3CCC[C@H](C)C3)cc2)[nH]c2cc(F)cc(F)c2c1=O`, in data set [1], the IC50 lay in the range of 400 to 470 nM. The IC90 in [7] was 660 nM. In addition, the Activity in the data set with HepG2 stood at 85.54 µM. The half-life at up to 10 µM in [8] was found to be 8.54 min; in [9], 7.65 min; in data set [10], 5.72 min. For the same compound, the fraction unbound at 18 h, 1 µM in data set [2] was 0.007. In data set [3], this compound displayed a solubility of under 0.3 µM. In addition, the logD in data set [4] is over 3.2. Also, in data set [5], the microsomal CLint was over 300 µL/min/mg. Further, the hepatocyte CLint in data set [6] was 91.2 µL/min/1e6 cells.
Consider `Cc1c(-c2ccc(N3CCC[C@@H](C)C3)cc2)[nH]c2cc(F)cc(F)c2c1=O`, for which, in data set [1], the IC50 was 470 nM. The fraction unbound at 18 h, 1 µM in data set [2] is 0.005. In data set [3], this compound had a solubility of under 0.5 µM. The logD in [4] was determined as 4.7. Further, the microsomal CLint in data set [5] was over 300 µL/min/mg. For the same compound, the hepatocyte CLint in data set [6] was 183 µL/min/1e6 cells.
Consider `Cc1c(-c2ccc(N3CCCC(C)C3)cc2)[nH]c2cc(F)cc(F)c2c1=O` (centres undefined), for which, in [1], the IC50 was in the range of 367 to 370 nM. In [7], the IC90 is 630 nM. For the same compound, the Activity in the data set on HepG2 was over 100 µM. Moreover, the values for the half-life at up to 10 µM in data set [8], in [9] and in data set [10] were 7.9 min, 22.3 min and 10.8 min, respectively.
